Patent US20040102454A1, “Phenylahistin and the phenylahistin analogs, a new class of anti-tumor compounds” (priority 1998, published 2004)

Legend:
Assay in all cases: HCC panel assay, sulforhodamine B
Format in all cases: cell-based
[1] = tested on: SNB-78; conditions: SNB-78, CNS, (−)-PLH content 24.1%
Method: (§1) The antitumor activity of PLH was evaluated by the Human Cancer Cell Line Panel (HCC panel) assay, see Yamori T., Jap. J Cancer Chemother., (1997), 24, 129-35. This HCC panel consists of 38 tumor cell lines including 7 lung cancer, 6 stomach, 6 colon, 5 ovary, 6 central nerve system, 5 breast, 2 kidney and 1 melanoma cell lines. Each tumor cell was seeded in 96-well tissue culture plates and incubated overnight. Various concentrations (5 doses; final 10^−4, 10^−5, 10^−6, 10^−7 and 10^−8 M) of PLH were added, and the cells were incubated for 48 hours. […] All mice were obtained from Japan SLC (Shizuoka, Japan), P388 leukemia cells were obtained from Dainippon Pharmaceuticals Inc. (Osaka, Japan), Lewis Lung Carcinoma from Riken Cell Bank (Tsukuba, Japan), and Colon 26 cells from the National Cancer Center, Japan (Tokyo, Japan).

[2] = tested on: MKN45; conditions: MKN45, Stomach, (−)-PLH content 24.1%
Method: as §1

[3] = tested on: SF-539; conditions: SF-539, CNS, (−)-PLH content 24.1%
Method: as §1

[4] = tested on: HBC-5; conditions: HBC-5, Breast, (−)-PLH content 24.1%
Method: as §1

[5] = tested on: A549; conditions: A549, Lung, (−)-PLH content 24.1%
Method: as §1

[6] = tested on: ACHN; conditions: Renal, (−)-PLH content 24.1%
Method: as §1

[7] = tested on: OVCAR-8; conditions: OVCAR-8, Ovary, (−)-PLH content 24.1%
Method: as §1

[8] = tested on: HBC-4; conditions: HBC-4, Breast, (−)-PLH content 24.1%
Method: as §1

[9] = tested on: OVCAR-3
Method: as §1

[10] = tested on: SF-295; conditions: SF-295, CNS, (−)-PLH content 24.1%
Method: as §1

[11] = tested on: OVCAR-4; conditions: OVCAR-4, Ovary, (−)-PLH content 24.1%
Method: as §1

[12] = tested on: WiDr; conditions: Colon, (−)-PLH content 24.1%
Method: as §1

[13] = tested on: HT-29; conditions: HT-29, Colon, (−)-PLH content 24.1%
Method: as §1

[14] = tested on: LOX-IMVI; conditions: Melanoma, (−)-PLH content 24.1%
Method: as §1

[15] = tested on: NCI-H522; conditions: NCI-H522, Lung, (−)-PLH content 24.1%
Method: as §1

[16] = tested on: BSY-1; conditions: BSY-1, Breast, (−)-PLH content 24.1%
Method: as §1

[17] = tested on: KM-12; conditions: KM-12, Colon, (−)-PLH content 24.1%
Method: as §1

[18] = tested on: U251; conditions: U251, CNS, (−)-PLH content 24.1%
Method: as §1

[19] = Homo sapiens, read-out: GL50 (the source's name)
[20] = Homo sapiens, read-out: LC50 (the source's name)

## C=CC(C)(C)c1[nH]cnc1/C=C1\NC(=O)[C@H](Cc2ccccc2)NC1=O (racemic) [PLH, phenylahistin]
[1]; [19]
  IC50: 1300 nM
[1]; [20]
  CC50: > 100000 nM
[1]
  TGI: >100000 nM
[2]; Homo sapiens, MKN-45, read-out: GL50 (the source's name)
  IC50: 1500 nM
[2]; Homo sapiens, MKN-45, read-out: LC50 (the source's name)
  CC50: > 100000 nM
[2]
  TGI: >100000 nM
[3]; [19]
  IC50: 230 nM
[3]; [20]
  CC50: 11000 nM
[3]
  TGI: 600 nM
[4]
  TGI: >100000 nM
[4]; Homo sapiens, HBC5, read-out: GL50 (the source's name)
  IC50: 600 nM
[4]; Homo sapiens, HBC5, read-out: LC50 (the source's name)
  CC50: > 100000 nM
[5]
  TGI: >100000 nM
[5]; [19]
  IC50: 970 nM
[5]; [20]
  CC50: > 100000 nM
[6]; [19]
  IC50: 28000 nM
[6]; [20]
  CC50: > 100000 nM
[6]
  TGI: >100000 nM
[7]; [19]
  IC50: 520 nM
[7]; [20]
  CC50: > 100000 nM
[7]
  TGI: 56000 nM
[8]
  TGI: >100000 nM
[8]; Homo sapiens, HBC4, read-out: GL50 (the source's name)
  IC50: 460 nM
[8]; Homo sapiens, HBC4, read-out: LC50 (the source's name)
  CC50: > 100000 nM
[9]; Homo sapiens, OVCAR-3, read-out: LC50
  CC50: > 100000 nM
[9]; Homo sapiens, OVCAR-3, Ovary, (−)-PLH content 24.1%, read-out: GL50 (the source's name)
  IC50: 3000 nM
[9]; OVCAR-3, Ovary, (−)-PLH content 24.1%
  TGI: >100000 nM
[10]; [19]
  IC50: 320 nM
[10]; [20]
  CC50: > 100000 nM
[10]
  TGI: 2400 nM
[11]; [19]
  IC50: 40000 nM
[11]; [20]
  CC50: > 100000 nM
[11]
  TGI: >100000 nM
[12]
  TGI: 790 nM
[12]; [19]
  IC50: 270 nM
[12]; [20]
  CC50: > 100000 nM
[13]
  TGI: >100000 nM
[13]; [19]
  IC50: 400 nM
[13]; [20]
  CC50: > 100000 nM
[14]; [19]
  IC50: 1300 nM
[14]; [20]
  CC50: > 100000 nM
[14]
  TGI: >100000 nM
[15]; [19]
  IC50: 250 nM
[15]; [20]
  CC50: > 100000 nM
[15]
  TGI: 810 nM
[16]
  TGI: 670 nM
[16]; [19]
  IC50: 230 nM
[16]; [20]
  CC50: > 100000 nM
[17]; Homo sapiens, KM12, read-out: GL50 (the source's name)
  IC50: 380 nM
[17]; Homo sapiens, KM12, read-out: LC50 (the source's name)
  CC50: > 100000 nM
[17]
  TGI: >100000 nM
[18]; Homo sapiens, U-251, read-out: GL50 (the source's name)
  IC50: 440 nM
[18]; Homo sapiens, U-251, read-out: LC50 (the source's name)
  CC50: > 100000 nM
[18]
  TGI: 10000 nM
